The values that follow come from patent US20050209278A1, “Piperidinyl- and piperazinyl-sulfonylmethyl hydroxamic acids and their use as protease inhibitors” (priority 2002, published 2005).

Where only a bound is given, the exact number is not on record here.

Test [1] deals with T1, MMP-1 (Homo sapiens, UniProt P03956).
T1 construct: made in house; host or cells: MMP-1-transfected HT-1080 cells (spent media)
T1 sequence (P03956 100-469): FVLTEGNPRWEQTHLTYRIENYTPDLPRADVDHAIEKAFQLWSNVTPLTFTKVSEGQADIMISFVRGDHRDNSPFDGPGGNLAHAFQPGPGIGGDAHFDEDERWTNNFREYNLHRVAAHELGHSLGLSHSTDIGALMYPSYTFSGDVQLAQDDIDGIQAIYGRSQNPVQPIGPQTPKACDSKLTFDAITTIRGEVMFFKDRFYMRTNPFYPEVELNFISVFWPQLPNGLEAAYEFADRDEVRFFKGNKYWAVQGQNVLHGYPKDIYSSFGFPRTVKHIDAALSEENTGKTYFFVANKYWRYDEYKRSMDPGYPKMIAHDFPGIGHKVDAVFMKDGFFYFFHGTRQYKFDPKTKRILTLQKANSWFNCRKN
In words: In vitro MMP inhibition, Ki determination (fluorogenic substrate II). To be noted: value not in parenthesis; read-out: MMP-1 Ki. Type of test: biochemical. On the procedure: (§1) Several hydroxamic acids and salts thereof were analyzed in in vitro assays to determine their ability to inhibit the MMP cleavage of peptide substrates. […] and IC50 constants were calculated from the assayed hydroxamic acid-MMP interactions.
(§2) Human recombinant MMP-1, MMP-2, MMP-9, MMP-13, and MMP-14 were used in this assay. All enzymes were prepared in Assignee's laboratories following usual laboratory procedures. Protocols for the preparation and use of these enzymes are available in the scientific literature. See, e.g., Enzyme Nomenclature (Academic Press, San Diego, Calif., 1992) (and the citations therein). See also, Freije et al., “Molecular cloning and expression of collagenase-3, a novel human matrix metalloproteinase produced by breast carcinomas,” J Biol. Chem., 269(24), 16766-16773 (1994).
The MMP-1 proenzyme was purified from the spent media of MMP-1-transfected HT-1080 cells provided by Dr. Harold Welgus of Washington University (St. Louis, Mo.). The protein was purified on a zinc chelating column.
(§3) All MMPs were activated using 4-aminophenylmercuric acetate (“APMA”, Sigma Chemical, St. Louis, Mo.) or trypsin. MMP-9 also was activated using human recombinant MMP-3 (purified in Assignee's laboratory following standard cloning and purification techniques).
(§4) Two fluorogenic, methoxycoumarin-containing polypeptide substrates were used in the MMP inhibition assays: [drawing 427] Here, “Dpa” is 3-(2,4-dinitrophenyl)-L-2,3-diaminopropionyl group, and “MCA” is 7-methoxycoumarin-4-yl acetyl. Substrate (I) was purchased from Baychem (Redwood City, Calif.), and substrate II was prepared Assignee's laboratory. Substrate I was used in the IC50 determination assays, while substrate II was used in the Ki determination assays. In the absence of MMP inhibitory activity, either substrate is cleaved at the Gly-Leu peptide bond. This cleavage separates the highly fluorogenic peptide from the 2,4-dinitrophenyl quencher, thus resulting in increase of fluorescent intensity.
(§5) The stock solutions of the assayed hydroxamic acids (or salts thereof) were prepared in 1% dimethyl sulfoxide (DMSO). These stock solutions were diluted in Buffer A (100 mM Tris-HCl, 100 mM NaCl, 10 mM CaCl2, 0.05% polyoxyethylene 23 lauryl ether, pH 7.5) to obtain solutions with different hydroxamic acid concentrations, i.e., assay solutions with different concentrations of the assayed MMP inhibitory compound. The experiment controls contained the same amount of Buffer A/DMSO as the assayed sample, but contained no hydroxamic acid (or salt thereof).
The assays from which the Ki determinations were made were performed as follows. The assayed hydroxamic acid samples were incubated in separate wells of untreated white polystyrene plates (Nunc Nalgene International, Rochester, N.Y.), and analyzed on a Tecan SpectraFlour Plus plate reader. The excitation wavelength was 330 nm, and the emission wavelength—420 nm. All samples (assayed hydroxamic acids and controls) were incubated in separate plate wells at room temperature for 1 hr in the presence of 4 μM of MMP substrate (II). In the absence of MMP inhibitory activity, substrate II was cleaved at the Gly-Leu bond resulting in an increase of relative fluorescence. Inhibition was observed as a reduced rate of this increase in relative fluorescence. The various hydroxamic acids were analyzed using a single low enzyme concentration with a single substrate concentration fixed at or below the Km. This protocol is a modification of method by Knight et al., FEBS Lett., 296(3), 263-266 (1992). Apparent inhibitory constants were determined by non-linear regression of reaction velocity as a function of inhibitor and enzyme concentration using Morrison's equation, as described by Kuzmic, Anal. Biochem. 286, 45-50 (2000). […] Since the substrate concentration was chosen to be at or below the Km, the apparent Ki's from this analysis were reported as Ki's without correction for the influence of substrate.

Test [2] addresses T2, MMP-9 (Homo sapiens, UniProt P14780).
T2 construct: made in house; host or cells: MMP-9-transfected HT1080 cells (spent media)
The test is described as above. Type of test: biochemical. The settings on record: value not in parenthesis. On the procedure: as §1, §2
The MMP-9 proenzyme was purified by gelatin Sepharose chromatography from spent media of MMP-9-transfected HT1080 cells provided by Dr. Howard Welgus of Washington University (St. Louis, Mo.).
as §3, §4, §5
The assays from which the Ki determinations were made were performed as follows. The assayed hydroxamic acid samples were incubated in separate wells of untreated white polystyrene plates (Nunc Nalgene International, Rochester, N.Y.), and analyzed on a Tecan SpectraFlour Plus plate reader. The excitation wavelength was 330 nm, and the emission wavelength—420 nm. All samples (assayed hydroxamic acids and controls) were incubated in separate plate wells at room temperature for 1 hr in the presence of 4 μM of MMP substrate (II). In the absence of MMP inhibitory activity, substrate II was cleaved at the Gly-Leu bond resulting in an increase of relative fluorescence. Inhibition was observed as a reduced rate of this increase in relative fluorescence. The various hydroxamic acids were analyzed using a single low enzyme concentration with a single substrate concentration fixed at or below the Km. This protocol is a modification of method by Knight et al., FEBS Lett., 296(3), 263-266 (1992). Apparent inhibitory constants were determined by non-linear regression of reaction velocity as a function of inhibitor and enzyme concentration using Morrison's equation, as described by Kuzmic, Anal. Biochem. 286, 45-50 (2000). Modifications were made in the non-linear regression method to allow a common control reaction rate and effective enzyme concentration to be shared between all dose-response relationships on a given assay plate. […]

T2 sequence (P14780 107-707 limits assumed): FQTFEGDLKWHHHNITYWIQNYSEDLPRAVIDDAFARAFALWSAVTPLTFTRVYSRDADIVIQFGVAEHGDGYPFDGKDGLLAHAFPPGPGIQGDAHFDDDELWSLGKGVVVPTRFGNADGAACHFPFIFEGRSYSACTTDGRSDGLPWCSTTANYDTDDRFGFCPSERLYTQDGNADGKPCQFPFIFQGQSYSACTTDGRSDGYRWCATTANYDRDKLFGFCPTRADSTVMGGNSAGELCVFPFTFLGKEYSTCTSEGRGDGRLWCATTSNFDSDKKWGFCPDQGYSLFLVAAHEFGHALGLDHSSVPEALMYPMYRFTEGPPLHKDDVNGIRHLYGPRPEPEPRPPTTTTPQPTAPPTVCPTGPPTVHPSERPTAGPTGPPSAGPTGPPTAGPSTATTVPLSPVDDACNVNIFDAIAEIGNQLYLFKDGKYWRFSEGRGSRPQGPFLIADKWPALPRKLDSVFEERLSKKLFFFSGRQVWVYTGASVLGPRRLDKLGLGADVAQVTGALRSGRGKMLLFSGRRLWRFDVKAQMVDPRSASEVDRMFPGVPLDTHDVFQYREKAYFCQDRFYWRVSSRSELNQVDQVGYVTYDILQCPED

By Ki is commonly meant a dissociation constant, usually derived from enzyme kinetics or from competition with a known ligand. Regarding `COc1ccc(N2CCN(S(=O)(=O)C3(C(=O)NO)CCOCC3)CC2)nc1` [Example 109], the Ki in test [1] was greater than 10000 nM; in test [2], 447 nM.
As for `CCCCCCCCCc1cnc(N2CCN(S(=O)(=O)C3(C(=O)NO)CCOCC3)CC2)nc1` [Example 110], the Ki is greater than 10000 nM in test [1] and 40.6 nM in test [2].
Turning to `CCCCCCCCCc1cnc(N2CCN(S(=O)(=O)C3(C(=O)NO)CCOCC3)CC2)nc1` [Example 111], the Ki in test [1] was greater than 10000 nM; in test [2], 30.6 nM.
For `O=C(NO)C1(S(=O)(=O)N2CCN(c3ccc(OCCCC(F)(F)F)cc3)CC2)CCN(c2cnccn2)CC1` [Example 112], in that order: greater than 10000 nM and 15.4 nM.
For `CCCCOc1ccc(N2CCN(S(=O)(=O)C3(C(=O)NO)CCN(C(=O)OCCF)CC3)CC2)cc1` [Example 113], in that order: greater than 10000 nM and 1.01 nM.
For `CCc1ccc(N2CCN(S(=O)(=O)C3(C(=O)NO)CCOCC3)CC2)nc1` [Example 114], in that order: 1610 nM and 2.64 nM.
As to `CCCCOc1ccc(N2CCN(S(=O)(=O)C3(C(=O)NO)CCN(C(=O)OCC(F)(F)F)CC3)CC2)cc1` [Example 115], the figures for the Ki in test [1] and in test [2] were greater than 10000 nM and 4.97 nM, respectively.
For `CC(C)(C)N1CCC(C(=O)NO)(S(=O)(=O)N2CCN(c3ccc(OCCCC(F)(F)F)cc3F)CC2)CC1` [Example 116], in that order: greater than 10000 nM and 49.5 nM.
As to `O=C(NO)C1(S(=O)(=O)N2CCN(c3ccc(OCCCC(F)(F)F)cc3F)CC2)CCOCC1` [Example 117], the Ki was greater than 10000 nM in test [1] and 27.7 nM in test [2].
As for `CCCCOc1ccc(N2CCN(S(=O)(=O)C3(C(=O)NO)CCN(C(=O)NCCOC)CC3)CC2)cc1` [Example 118], the Ki in test [1] is greater than 10000 nM; in test [2] it was 1.5 nM.
For `COCCN1CCC(C(=O)NO)(S(=O)(=O)N2CCN(c3ccc(OCC(F)(F)F)cc3)CC2)CC1` [Example 119], in that order: greater than 10000 nM and 1.35 nM.
For `CCCCOc1ccc(N2CCN(S(=O)(=O)C3(C(=O)NO)CCN(c4ccc(O)cc4)CC3)CC2)cc1` [Example 121], in that order: greater than 10000 nM and 3.6 nM.
For `O=C(c1cccnc1)N1CCC(C(=O)NO)(S(=O)(=O)N2CCN(c3ccc(OCCCC(F)(F)F)cc3)CC2)CC1` [Example 122], in that order: greater than 10000 nM and 0.01 nM.
`CCCCOc1ccc(N2CCN(S(=O)(=O)C3(C(=O)NO)CCN(C(=S)N(C)C)CC3)CC2)cc1` [Example 123]: the Ki in test [1] is greater than 10000 nM; in test [2], 2.72 nM.
For `CCCCOc1ccc(N2CCN(S(=O)(=O)C3(C(=O)NO)CCN(C(=O)N4CCOCC4)CC3)CC2)cc1` [Example 124], in that order: greater than 10000 nM and 0.429 nM.
As to `CCCCOc1ccc(N2CCN(S(=O)(=O)C3(C(=O)NO)CCN(c4ccc(C)cn4)CC3)CC2)cc1` [Example 125], the Ki in test [1] was greater than 10000 nM; in test [2], 7.2 nM.
For `CCCCOc1ccc(N2CCN(S(=O)(=O)C3(C(=O)NO)CCN4CCCC4C3)CC2)cc1F` (centres unmarked) [Example 126], in that order: greater than 10000 nM and 19 nM.
For `CCCCOc1ccc(N2CCN(S(=O)(=O)C3(C(=O)NO)CCN(C(=O)c4cc5ccccc5o4)CC3)CC2)cc1` [Example 127], in that order: greater than 10000 nM and 24 nM.
For `CC(C)CCOc1ccc(N2CCN(S(=O)(=O)C3(C(=O)NO)CCN(C4CC4)CC3)CC2)cc1` [Example 128], in that order: greater than 10000 nM and 1.92 nM.
With `CCCCOc1ccc(N2CCN(S(=O)(=O)C3(C(=O)NO)CCN(c4ccc(OCCOC)nn4)CC3)CC2)cc1` [Example 129], the Ki in test [1] is greater than 10000 nM; in test [2] it was 1.2 nM.
For `CCCCOc1ccc(N2CCN(S(=O)(=O)C3(C(=O)NO)CCN(c4nccc(C(F)(F)F)n4)CC3)CC2)cc1` [Example 130], in that order: greater than 10000 nM and 23.2 nM.
For `CCCCOc1ccc(N2CCN(S(=O)(=O)C3(C(=O)NO)CCN(c4ccc(C)nc4)CC3)CC2)cc1` [Example 131], in that order: greater than 10000 nM and 3.03 nM.
For `O=C1c2ccccc2C(=O)N1CCCCc1ccc(N2CCN(S(=O)(=O)C3(C(=O)NO)CCOCC3)CC2)nc1` [Example 132], in that order: 66.1 nM and 28.3 nM.
Turning to `CC(C)CCc1ccc(N2CCN(S(=O)(=O)C3(C(=O)NO)CCOCC3)CC2)nc1` [Example 133], the Ki in test [1] was greater than 10000 nM; in test [2], 0.52 nM.
For `CCCc1ccc(N2CCN(S(=O)(=O)C3(C(=O)NO)CCOCC3)CC2)nc1` [Example 136], in that order: 2380 nM and 0.196 nM.
For `Cc1ccc(N2CCN(S(=O)(=O)C3(C(=O)NO)CCOCC3)CC2)nc1` [Example 138], in that order: 1380 nM and 5.09 nM.
As to `CCCCOc1ccc(N2CCN(S(=O)(=O)C3(C(=O)NO)CCN(c4cc(C)ccn4)CC3)CC2)cc1` [Example 139], the inhibition constant (Ki) is 7240 nM in test [1] and 7.45 nM in test [2].
For `CCCCOc1ccc(N2CCN(S(=O)(=O)C3(C(=O)NO)CCN(c4cnccn4)CC3)CC2)cc1` [Example 140], in that order: greater than 10000 nM and 1.76 nM.
For `CCCCOc1ccc(N2CCN(S(=O)(=O)C3(C(=O)NO)CCN(C(=O)OCCOC)CC3)CC2)cc1` [Example 141], in that order: 8900 nM and 5.33 nM.
For `CCCCOc1ccc(N2CCN(S(=O)(=O)C3(C(=O)NO)CCN(c4ccc(OC)nc4)CC3)CC2)cc1` [Example 142], in that order: greater than 10000 nM and 2.15 nM.
In the case of `CCCCOc1ccc(N2CCN(S(=O)(=O)C3(C(=O)NO)CCN(C(=O)c4cc5ccccc5s4)CC3)CC2)cc1` [Example 143], the Ki in test [1] is greater than 10000 nM; in test [2], 29 nM.
